How the values were obtained:
Test in all cases: relative viability (nuclei count vs DMSO), 5 days (fraction); higher = more cells survive
NCI-H2009 = tested on: NCI-H2009
Outline: (§1)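 Relative viability was taken as the ratio of nuclei in treated wells to nuclei in vehicle wells. Lung cancer cell lines in 1536-well plates received compounds by pin tool one day after seeding, either one drug alone or a fixed anchor-drug dose plus five library-drug doses (not always all listed) in √10 steps. Nuclei were counted on 4× images after 5 days of treatment, and values are medians of duplicate plates.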

SK-LU-1 = tested on: SK-LU-1
Outline: as §1

NCI-H2228 = tested on: NCI-H2228
Outline: as §1

HOP-62 = tested on: HOP-62
Outline: as §1

A-427 = tested on: A-427
Outline: as §1

NCI-H1975 = tested on: NCI-H1975
Outline: as §1

NCI-H1792 = tested on: NCI-H1792
Outline: as §1

EMC-BAC-2 = tested on: EMC-BAC-2
Outline: as §1

CAL-12T = tested on: CAL-12T
Outline: as §1

HARA = tested on: HARA
Outline: as §1

HCC-827 = tested on: HCC-827
Outline: as §1

Molecule `CC1(C)CCC(c2ccc(Cl)cc2)=C(CN2CCN(c3ccc(C(=O)NS(=O)(=O)c4ccc(N[C@H](CCN5CCOCC5)CSc5ccccc5)c(S(=O)(=O)C(F)(F)F)c4)cc3)CC2)C1` [Navitoclax] + CC(C)C[C@H](NC(=O)[C@H](Cc1ccccc1)NC(=O)c1cnccn1)B(O)O [Bortezomib] (partner 0.002 µM) has a relative viability (NCI-H2009; first compound 0.005 µM) of 0.958, a relative viability (NCI-H2009; first compound 0.01581 µM) of 1.19 and a relative viability (NCI-H2009; first compound 0.05 µM) of 0.953. The relative viability (NCI-H2009; first compound 0.1581 µM) was 0.979, the relative viability (NCI-H2009; first compound 0.5 µM) was 1.02 and the relative viability (SK-LU-1; first compound 0.005 µM) was 1.19. It also gave a relative viability (SK-LU-1; first compound 0.01581 µM) of 1.12, a relative viability (SK-LU-1; first compound 0.05 µM) of 0.477 and a relative viability (SK-LU-1; first compound 0.1581 µM) of 1.09. For the same molecule, the relative viability (SK-LU-1; first compound 0.5 µM) was 0.961, the relative viability (NCI-H2228; first compound 0.005 µM) was 0.849 and the relative viability (NCI-H2228; first compound 0.01581 µM) was 1.33. The relative viability (NCI-H2228; first compound 0.05 µM) was 0.726, the relative viability (NCI-H2228; first compound 0.1581 µM) was 0.804 and the relative viability (NCI-H2228; first compound 0.5 µM) was 0.992. The relative viability (HOP-62; first compound 0.005 µM) was 0.575, the relative viability (HOP-62; first compound 0.01581 µM) was 0.818 and the relative viability (HOP-62; first compound 0.05 µM) was 0.82. For the same molecule, the relative viability (HOP-62; first compound 0.1581 µM) was 0.85, the relative viability (HOP-62; first compound 0.5 µM) was 1.1 and the relative viability (A-427; first compound 0.005 µM) was 1.06. It also gave a relative viability (A-427; first compound 0.01581 µM) of 1.04, a relative viability (A-427; first compound 0.05 µM) of 0.819 and a relative viability (A-427; first compound 0.1581 µM) of 1.02. It also gave a relative viability (A-427; first compound 0.5 µM) of 0.949, a relative viability (NCI-H1975; first compound 0.005 µM) of 0.389 and a relative viability (NCI-H1975; first compound 0.01581 µM) of 0.354. It also gave a relative viability (NCI-H1975; first compound 0.05 µM) of 0.381, a relative viability (NCI-H1975; first compound 0.1581 µM) of 0.258 and a relative viability (NCI-H1975; first compound 0.5 µM) of 0.255. The relative viability (NCI-H1792; first compound 0.005 µM) was 0.976, the relative viability (NCI-H1792; first compound 0.01581 µM) was 1.01 and the relative viability (NCI-H1792; first compound 0.05 µM) was 0.995. It also gave a relative viability (NCI-H1792; first compound 0.1581 µM) of 0.964, a relative viability (NCI-H1792; first compound 0.5 µM) of 0.934 and a relative viability (EMC-BAC-2; first compound 0.005 µM) of 1.04. The relative viability (EMC-BAC-2; first compound 0.01581 µM) was 1.19, the relative viability (EMC-BAC-2; first compound 0.05 µM) was 1.01 and the relative viability (EMC-BAC-2; first compound 0.1581 µM) was 1.03. For the same molecule, the relative viability (EMC-BAC-2; first compound 0.5 µM) was 1.12, the relative viability (CAL-12T; first compound 0.005 µM) was 0.887 and the relative viability (CAL-12T; first compound 0.01581 µM) was 0.711. The relative viability (CAL-12T; first compound 0.05 µM) was 0.989, the relative viability (CAL-12T; first compound 0.1581 µM) was 0.853 and the relative viability (CAL-12T; first compound 0.5 µM) was 0.941. For the same molecule, the relative viability (HARA; first compound 0.005 µM) was 1.04, the relative viability (HARA; first compound 0.01581 µM) was 1.11 and the relative viability (HARA; first compound 0.05 µM) was 0.643. It also gave a relative viability (HARA; first compound 0.1581 µM) of 1.08, a relative viability (HARA; first compound 0.5 µM) of 1.18 and a relative viability (HCC-827; first compound 0.005 µM) of 1.02. It also gave a relative viability (HCC-827; first compound 0.01581 µM) of 1.21, a relative viability (HCC-827; first compound 0.05 µM) of 0.87 and a relative viability (HCC-827; first compound 0.1581 µM) of 1.08.

— the supplement of paper PMC10307832
